How the values were obtained:
[1] = system: murine model of severe spinal cord injury (SCI); assay: Corticospinal tract (CST) axon regrowth after SCI (BDA tracing); format: in vivo, mouse; settings: 12 weeks after injury, BDA-labeled axons
Description: (§1) All experiments were conducted at the Simpson Querrey Institute at Northwestern University. 182 CD1 mice (Charles River) were subjects of this study (N=38 Sham, N=38 IKVAV PA2 alone, N=38 IKVAV PA2+FGF2 PA1, N=38 IKVAV PA2+FGF2 PA2, N=12 IKVAV PA1, N=12 Backbone PA, N=6 IKVAV PA4). The age of animals used in the study was in the range of 10-16 weeks. 8 independent in vivo experiments were carried out (injury+PA injection) and each of the 8 experiments had animals of the exact same age which were injected with at least the 4 main treatment groups: Sham, IKVAV PA2 alone, IKVAV PA2+FGF2 PA1, and IKVAV PA2+FGF2 PA2. Animals were anesthetized using 2.5% isoflurane gas with oxygen. A laminectomy was performed to expose the spinal cord at the T10-T11 spinal level. A severe contusive injury was performed using the Infinite Horizon Spinal Cord Impactor system (IH-0400 Precision Systems and Instrumentation) with 85 kdyn of impact force and a dwell time of 60 s. After the lesion, the skin was sutured using 9 mm wound clips (BD Biosciences) and the animals were recovered on a heating pad to maintain body temperature. Bladders were manually expressed daily during the entire 12 weeks of the experiment.
PAs (dissolved in sterile NaCl 0.9% solution at 1 wt %) were injected 24 h after SCI using a glass capillary micropipette (Sutter Instruments, Novato, CA) (outer diameter, 100 m) coated with Sigmacote (Sigma-Aldrich) to reduce surface tension as described elsewhere (19). The capillaries were loaded onto a Hamilton syringe using a female Luer adaptor (World Precision Instruments) controlled by a Micro4 microsyringe pump controller (World Precision Instruments). Under isoflurane anesthesia, autoclips were removed and the injury site was exposed. At 24 h post injury, the laminectomy in the spinal column was still intact and the bruise created by the lesion was visible. A stereotaxic Kopf apparatus was used to position the micropipette just dorsal to the lesion. The micropipette was lowered to a depth of 750 m measured from the dorsal surface of the cord, and 4-6 μL of the diluted amphiphile solution was injected at 1 L/min. […]
Axons labeled using BDA (Thermofisher, N7167) or stained with 5HT (Abcam) were quantified using Imaris® software version 9.3 as previously described (21). Lines were drawn across longitudinal spinal cord sections from the proximal border (PB) to the distal border (DB) of the SCI lesion at consistent distances and the number of axons intercepting the lines drawn was counted by researchers that were blinded to the experimental conditions. Multiple sections through the middle of the cord, where BDA or 5HT staining was denser, were counted per mouse and expressed as total intercepts per location, per animal. […]

[2] = system: murine model of severe spinal cord injury (SCI); assay: Glial scar, GAP-43, MBP, laminin and fibronectin in the SCI lesion (immunofluorescence, WB); settings: mouse, in vivo
Description: as §1, with “After the lesion, the skin was sutured using 9 mm wound clips (BD Biosciences) and the animals were recovered on a heating pad to maintain body temperature. Bladders were manually expressed daily during the entire 12 weeks of the experiment.” left out
PAs (dissolved in sterile NaCl 0.9% solution at 1 wt %) were injected 24 h after SCI using a glass capillary micropipette (Sutter Instruments, Novato, CA) (outer diameter, 100 m) coated with Sigmacote (Sigma-Aldrich) to reduce surface tension as described elsewhere (19). […] The micropipette was lowered to a depth of 750 m measured from the dorsal surface of the cord, and 4-6 μL of the diluted amphiphile solution was injected at 1 L/min. […]

hNPCs [3] = assay: Neuronal differentiation of hNPCs treated with IKVAV PAs (TUJ-1+ cells); format: cell-based, human
Excerpt: (§2) Neural progenitor cells (NPCs) were differentiated from human embryonic stem cells HUES 64 (Harvard University) (see FIG. 2C). In short, 70% confluent stem cell cultures grown in Matrigel (Thermo Fisher) coated plates with mTESR medium (STEMCELL Technologies), were switched to N2B27 medium (50% DMEM: F12, 50% Neurobasal, supplemented with NEAA, Glutamax, N2 and B27; Gibco) containing dual SMAD inhibitors (SB431542, DNSK International and LDN-193189, Tocris) for 12 days to induce the generation of neural progenitors. Neuralization was enhanced by supplementing medium with laminin from day 5 to 12. Next, neural rosettes were dissociated with neural rosette selection reagent (STEMCELL Technologies) to obtain NPCs, which are expanded in N2B27 (Gibco) medium supplemented with bFGF (Millipore). For experimentation in the different PA platforms, NPCs were dissociated with Accutase (Innovative Cell technology), and cultured in the distinct platforms with DMEM: F12+N2+B27 medium with hyclone penicillin-streptomycin (GE Healthcare) and ascorbic acid (0.2 μg/mL; Sigma-Aldrich).
(§3) For IKVAV PA treatments, hNPCs were cultured on ornithine coatings (German Glass, Chemglass Life Science) in 6 well and 24 well plates at a density of 500,000 cells/well and 80,000 cells/well respectively. hNPCs were treated with […] of IKVAV PAs ([PA]=6 mM, [KCl]=3 mM, [NaCl]=150 mM) or recombinant laminin protein (10 mg/mL) in solution. IKVAV PA2 and IKVAV PA5 were also mixed with 5 mM CaCl2) at a ratio PA:CaCl2) 6:1 to treat hNPCs. For 2D experiments, hNPCs were cultured on the different IKVAV PAs or laminin coatings in 6 well and 24 well plates at densities mentioned above. For co-assembled experiments, hNPCs were cultured on the different co-assembled PA coatings in 6 well and 24 well plates at a density of 400,000 cells/well and 50,000 cells/well respectively.
(§4) hNPCs were fed 4 times a week with DMEM: F12+N2^+B27 medium with hyclone penicillin-streptomycin and ascorbic acid. After 24 h, 72 h 1- or 2-weeks in vitro, cell lysates were harvested or fixed for WB or ICC, respectively. Three replicates per condition and at least three independent experiments were carried out for all conditions investigated.
(§5) For immunofluorescence, fixed primary cultures or free-floating tissue sections (40 m Thick) were incubated in blocking buffer containing 0.02% Triton-X (Sigma-Aldrich), 1% NHS (Gibco) and PBS 1× (Gibco). Samples were incubated with primary antibodies over night at 4° C. Alexa-488, Alexa-555 and/or Alexa-647 (1:500, Thermofisher) were used as secondary antibodies. DAPI (1:500, Thermofisher) was used to stain nuclei. Finally, the samples were mounted on coverslips with Immu-Mount (Fisher Scientific) solution for imaging.
For in vitro cell quantification, image files were imported into NIH Image J (1.51) software and the “analyze particles” and “cell counter” functions were used to measure the total number of cells in a determined area. Serial tissue sections were stained with NeuN and ChAT using free-floating immunostaining were quantified using Nikon Elements software. The rostral and caudal borders of the lesions were chosen as the first cross-sections that had NeuN staining in all four gray matter horns. 8 sections within the lesion were chosen per animal and expressed as number of neurons per section. Automated multichannel image acquisition, image stitching, and z-stack reconstruction ([…]) were carried out on a Nikon GasP R1 confocal microscope to image the entire selected cross-section for NeuN and Chat markers for all conditions.

β1-INTEGRIN (ITGB1) = molecular target: T1, β1-INTEGRIN (ITGB1) (Homo sapiens, UniProt P05556); assay: ITGB1 activation and intracellular signaling in hNPCs treated with IKVAV PAs (confocal microscopy, WB); format: cell-based
T1 construct: endogenous in cells; host or cells: hNPCs differentiated from human embryonic stem cells HUES 64
Excerpt: as §2, §3, §4, §5
RIPA buffer (Thermofisher) with a cocktail of Halt Protease and Phosphatase Inhibitors (Thermofisher) was used to extract protein from in vitro and in vivo samples. For in vivo studies, spinal cord tissue was then sonicated using a horn sonicator (Branson) to break up the tissue. A Pierce™ BCA Protein Assay Kit (Thermofisher) was used to determine protein content for all samples used. Protein extracts obtained from cell cultures or tissue were separated using an SDS-polyacrylamide gel and electro-transferred to a nitrocellulose membrane (Bio-Rad). Membranes were blocked for 30 minutes to 1 hour using a 5% milk solution (Bio-Rad) and incubated over night with primary antibodies. Corresponding secondary HRP-conjugated antibodies (1:1000, ThermoFisher) were used for 1 h at room temperature. Radiance Bioluminescent ECL substrate (Azure Biosystems) was used to detect protein signal. The membranes were imaged using the Azure Biosystems imager and densitometry analysis were performed using ImageJ software.

[4] = T2-NMR spin-spin relaxation rate of PA assemblies; format: physicochemical; settings: T2 relaxation of K residue of IKVAV PAs, no Ca2+
Description: NMR spectra were acquired at 600 MHz on a Tecmag NMR spectrometer using a Doty diffusion probe with a sweep width of 6 kHz and 16k data points or at 600 MHz on a Brucker Neo system with QCI-F cryoprobe.
NMR spectra for IKVAV PAs were recorded at 25° C. using TFA-d, H2O/D2O in 9/1 ratio (D2O contains 0.05 wt. % 3-(trimethylsilyl) propionic-2,2,3,3-d4 acid, sodium salt) as solvents. Chemical shifts are reported in part per million (ppm). Structural assignment was performed using ^1H,^1H-gCOSY, ^1H,^13C-gHSCQAD, TOCSY and NOESY. Multiplicities are quoted as singlet (s), doublet (d), multiplets (m), doublet of doublets (dd), doublet of doublet of doublets (ddd), triplet (t), quartet (q). The […] and typical spectra required 32 scans. Additional scans (512) were required for accurate estimation of the aromatic signal intensity since the epitope containing aromatic protons was present at only 10 mol %.
The spin-spin relaxation rates were measured using the Carr-Purcell-Gill-Meiboom pulse sequence with a delay time of 0.2 ms in a variable loop. The peak intensity data was fit to and exponential in the form:
where τ is the length of the delay time, R2 is the spin-spin relaxation rate and b are the baseline.

hNPCs [5] = assay: hNPC attachment, proliferation and phenotype on co-assembled PA coatings (EdU, SOX-2, PAX6); format: cell-based, human
Excerpt: as §2, §3, §4
For the hNPCs proliferation assay, 2 μM of the thymidine analog 5-ethynyl-2′-deoxyuridine (EdU, Thermo Fisher) was incorporated into the culture medium for 24 h. Cells were fixed at the indicated time points in 4% paraformaldehyde (PFA) for 15 min at RT. After fixation, samples were washed in PBS twice and then stained with Click-iT™ EdU Cell Proliferation Kit containing 11 mM CuSO4 (from 50 mM stock) and 1 μg/mL of Alexa Fluor-555 azide (from 0.5 mg/mL, Thermo Fisher) for 30 minutes at RT in the dark. The staining cocktail was then removed, and cells were washed with PBS. Then, hNPCs were counterstained with anti-rabbit SOX-2 antibody following the immunofluorescence protocol described below and 4′, 6-diamidino-2-phenylindole (DAPI, Thermo Fisher) at 5 μg/mL in PBS for 20 min at RT. The cells were then washed with PBS and mounted with Immu-Mount (Fisher Scientific) for imaging.
as §5, with “Finally, the samples were mounted on coverslips with Immu-Mount (Fisher Scientific) solution for imaging.” left out

T1 sequence (P05556 21-798): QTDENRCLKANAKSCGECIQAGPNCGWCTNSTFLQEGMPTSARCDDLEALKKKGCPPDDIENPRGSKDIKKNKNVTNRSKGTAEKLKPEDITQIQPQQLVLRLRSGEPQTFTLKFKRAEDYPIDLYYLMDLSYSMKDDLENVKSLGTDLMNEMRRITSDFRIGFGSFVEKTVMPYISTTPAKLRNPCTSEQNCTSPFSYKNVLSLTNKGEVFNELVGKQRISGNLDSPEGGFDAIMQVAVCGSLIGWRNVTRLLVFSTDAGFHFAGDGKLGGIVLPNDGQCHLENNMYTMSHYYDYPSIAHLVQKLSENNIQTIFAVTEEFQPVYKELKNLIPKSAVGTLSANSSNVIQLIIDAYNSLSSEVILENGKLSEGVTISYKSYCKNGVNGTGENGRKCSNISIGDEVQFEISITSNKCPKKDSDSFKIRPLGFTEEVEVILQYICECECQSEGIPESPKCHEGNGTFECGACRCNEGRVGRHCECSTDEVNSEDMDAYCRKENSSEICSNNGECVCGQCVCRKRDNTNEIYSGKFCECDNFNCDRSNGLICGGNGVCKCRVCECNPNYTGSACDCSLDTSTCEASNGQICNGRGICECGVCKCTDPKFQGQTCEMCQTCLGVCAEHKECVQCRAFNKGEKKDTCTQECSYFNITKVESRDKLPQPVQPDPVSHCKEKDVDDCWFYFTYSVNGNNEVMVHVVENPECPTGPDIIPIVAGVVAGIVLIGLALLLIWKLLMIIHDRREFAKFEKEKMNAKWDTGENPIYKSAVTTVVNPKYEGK

Substance | in vitro bioactivity (summary) (β1-INTEGRIN (ITGB1)) | R2 [4] [s⁻¹] | CST axon regrowth within the lesion [1] | glial scar (reactive astrocytes, GFAP) at the borders of the injury [2] | percentage of induction of TUJ-1+ neuronal cells (hNPCs [3]) [%] | percentage of proliferating EdU+ and SOX2+ cells (hNPCs [5]) | percentage of neuronal progenitor cells PAX6+ (hNPCs [5]; one week later)
C16-V2A2E2 (VVAAEE) [Backbone PA] | – | – | hardly observed | dense population of reactive astrocytes expressing high levels of GFAP | – | – | –
laminin | – | – | – | – | – | decreased significantly | increased percentage

The next lines start with results.

in vitro bioactivity (summary) (β1-INTEGRIN (ITGB1)) | R2 [4] [s⁻¹] | Substance | CST axon regrowth within the lesion [1] | glial scar (reactive astrocytes, GFAP) at the borders of the injury [2] | percentage of induction of TUJ-1+ neuronal cells (hNPCs [3]) [%] | percentage of proliferating EdU+ and SOX2+ cells (hNPCs [5]) | percentage of neuronal progenitor cells PAX6+ (hNPCs [5]; one week later)
low level of in vitro bioactivity | 6.0 ± 0.03 | C16-AVA2E4GIKVAV [IKVAV PA7] | – | – | 7.4±0.6 | – | –
low level of in vitro bioactivity | 4.5 ± 0.7 | C16-AVG2E4GIKVAV [IKVAV PA3] | – | – | 7.5±0.6 | – | –
low level of in vitro bioactivity | 6.1 ± 0.8 | C16-VA3E4GIKVAV [IKVAV PA6] | – | – | 7.9±1.3 | – | –
low level of in vitro bioactivity | 4.5 ± 0.2 | C16-A4E4GIKVAV [IKVAV PA8] | – | – | 7.5±0.5 | – | –

From patent US20240325548A1, “DYNAMIC BIOACTIVE SCAFFOLDS AND THERAPEUTIC USES THEREOF AFTER CNS INJURY” (Northwestern University, priority 2021, published 2024)
